Test [1] is described as follows: Competitive inhibition of Sporosarcina pasteurii CCM 2056 urease using varying levels of urea as substrate after 10 mins by Lineweaver-Burk plot analysis.
A short description of test [2]: Competitive inhibition of Sporosarcina pasteurii CCM 2056 urease using varying levels of urea as substrate pretreated for 60 mins followed by substrate addition after 10 mins by Lineweaver-Burk plot analysis.
The subject of test [3] is Sporosarcina pasteurii. The experiment in a line: Inhibition of Sporosarcina pasteurii CCM 2056 urease up to 2 mM using urea as substrate pretreated for 60 mins followed by substrate addition after 15 mins by phenol-hypochlorite reagent based colorimetric method.
The subject of test [4] is Sporosarcina pasteurii. As to the kind of experiment: Potency index, ratio of Methyl (Z)-2-{[hydrogen(hydroxy)phosphoryl]methyl}-3-phenylpropenoate Ki to compound Ki for competitive inhibition of Sporosarcina pasteurii CCM 2056 urease using varying levels of urea as substrate pretreated for 60 mins followed by substrate addition measured after 10 mins.
Test [5] can be described thus: Inhibition of Sporosarcina pasteurii CCM 2056 urease using urea as substrate after 15 mins by phenol-hypochlorite reagent based colorimetric method.
Test [6] in a line: Inhibition of Sporosarcina pasteurii CCM 2056 urease using urea as substrate pretreated for 60 mins followed by substrate addition after 15 mins by phenol-hypochlorite reagent based colorimetric method.
Test [7] is described as follows: Irreversible inhibition of Sporosarcina pasteurii CCM 2056 urease assessed as reduction in ammonia production using urea as substrate pretreated for 60 mins followed by substrate addition measured for 120 mins by Berthelot colorimetric assay.
The subject of test [8] is Sporosarcina pasteurii. The experiment in a line: Ratio of Kinact to Ki for Sporosarcina pasteurii CCM 2056 urease.
Test [9] in a line: Irreversible inhibition of Sporosarcina pasteurii CCM 2056 urease assessed as reduction in ammonia production using urea as substrate measured for 120 mins by Berthelot colorimetric assay.
The nature of test [10]: Slow-binding inhibition of Sporosarcina pasteurii CCM 2056 urease using varying levels of urea as substrate pretreated for 60 mins followed by substrate addition after 120 mins by phenol-hypochlorite reagent based colorimetric method.
A short description of test [11]: Slow-binding inhibition of Sporosarcina pasteurii CCM 2056 urease using varying levels of urea as substrate after 120 mins by phenol-hypochlorite reagent based colorimetric method.
Test [12] in a line: Inhibition of Proteus mirabilis urease.

Structures are written as SMILES. Calls of active or inactive are those of the source. The rule behind the calls is not given here. A value given as a limit tells only on which side of the number the result lay.

From ChEMBL document CHEMBL4033625, “Novel organophosphorus scaffolds of urease inhibitors obtained by substitution of Morita-Baylis-Hillman adducts with phosphorus nucleophiles” (Eur J Med Chem, 2017) come the findings set out here.

For the compound `COC(=O)/C(=C/c1ccc(OC)cc1)CCP(=O)(O)O`, the Ki in [1] came to 327 µM; in test [2], 292 µM.
Regarding `Cc1ccc(/C=C(\CCP(=O)(O)O)C(=O)O)cc1`, in [2], the Ki worked out at 66.7 µM.
For `O=C(O)/C(=C/c1ccc(F)cc1)CP(=O)(O)O`, the figures for the Ki in [1] and in [2] were 13.4 µM and 9.79 µM, respectively.
For `COC(=O)/C(=C/c1ccccc1)CP(C)(=O)O`, the inhibition result with Sporosarcina pasteurii [3] was “inactive”.
`COC(=O)/C(=C/c1ccc(F)cc1)C[PH](=O)O`: the values for the Ki in test [1] and in test [2] were 17.9 µM and 14.5 µM, respectively. Also, the Ratio Ki in the test with Sporosarcina pasteurii [4] was in the range of 5 to 7.
Turning to `COC(=O)/C(=C/c1ccc(Cl)cc1)CP(=O)(O)O`, the values for the Ki in [1] and in test [2] were 88.9 µM and 81.2 µM, respectively.
`COc1ccc(/C=C(\CP(=O)(O)O)C(=O)O)cc1`: the Ki in test [1] was 28.9 µM; in test [2], 34.4 µM.
`O=C(O)/C(=C/c1ccccc1)CP(=O)(O)CO`: the inhibition result in the test with Sporosarcina pasteurii [3] is “inactive”.
As for `O=C(O)/C(=C/c1ccccc1)CP(=O)(O)O`, the IC50 was 44.5 µM in [5] and 27.8 µM in test [6]. Further, the Ki was 16.1 µM in [1] and 13 to 13.1 µM in test [2].
For `COC(=O)/C(=C/c1ccc(C)cc1)C[PH](=O)O`, the Ki in test [1] came out at 41.6 µM; in [2] it was 23.4 µM. The Ratio Ki in the test with Sporosarcina pasteurii [4] was in the range of 5 to 7.
`COC(=O)/C(=C/c1ccccc1)CP(=O)(O)CO`: the results for the IC50 in test [5] and in [6] were 465 µM and 309 µM, respectively. Further, the Ki in [1] came to 327 µM; in test [2] it was 293 µM.
Regarding `C=C(C(=O)OC)C(OC(C)=O)c1ccc(Cl)cc1` (configuration not stated), the IC50 was found to be 17.7 µM in test [7] and 53.2 µM in [9]. Besides, the Ratio in the test on Sporosarcina pasteurii [8] was found to be 75.3 M⁻¹ s⁻¹.
In the case of `C=C(C(=O)OC)C(OC(C)=O)c1ccc(NC(C)=O)cc1` (configuration not stated), the IC50 is 302 µM in test [7] and above 1000 µM in test [9]. Further, the Ratio in the test on Sporosarcina pasteurii [8] came out at 2.78 M⁻¹ s⁻¹.
`COC(=O)/C(=C/c1ccc(F)cc1)CCP(=O)(O)O`: the Ki in test [1] was determined as 48.4 µM; in test [2] it was 47.4 µM.
`COC(=O)/C(=C/c1ccc(NC(C)=O)cc1)C[PH](=O)O`: the inhibition constant Ki came to 20.6 µM in [1] and 13.4 µM in test [2]. Also, the Ratio Ki in the test on Sporosarcina pasteurii [4] lay within 5 to 7.
As for `COC(=O)/C(=C/c1ccc([N+](=O)[O-])cc1)CCP(=O)(O)O`, the Ki in test [10] was determined as 362 µM; in [11] it was 54.1 µM.
With `COC(=O)/C(=C/c1ccc(NC(C)=O)cc1)CP(=O)(O)O`, the Ki was 404 µM in test [1] and 386 µM in test [2].
Consider `C=C(C(=O)OC)C(OC(C)=O)c1ccc(F)cc1` (configuration not stated), for which the IC50 was 4.15 µM in test [7] and 64.2 µM in test [9]. Further, in the test on Sporosarcina pasteurii [8], the Ratio turned out to be 525 M⁻¹ s⁻¹.
On to `O=C(O)/C(=C/c1ccccc1)C[PH](=O)O`, for which the IC50 in test [5] came to 344 µM; in test [6] it was 234 µM. The results for the Ki in test [1] and in test [2] were 208 µM and 117 µM, respectively.
In the case of `COC(=O)/C(=C/c1ccccc1)CCP(=O)(O)O`, the figures for the IC50 in test [5] and in test [6] were 4.28 µM and 4.18 µM, respectively. Also, the Ki was 3.67 µM in test [1], 3.05 µM in [2] and 1.52 µM in [12].
Consider `COC(=O)/C(=C/c1ccccc1)CP(=O)(O)CN`, for which, in the test on Sporosarcina pasteurii [3], the inhibition result was “inactive”.
As for `COC(=O)/C(=C/c1ccc(OC)cc1)C[PH](=O)O`, the Ki in test [1] was determined as 157 µM; in [2] it was 149 µM.
With `COC(=O)/C(=C/c1ccccc1)CP(=O)(O)O`, the inhibition entry with Sporosarcina pasteurii [3] was “inactive”.
As to `O=C(O)/C(=C/c1ccc(F)cc1)CCP(=O)(O)O`, the results for the Ki in [1] and in test [2] were 32.3 µM and 27.9 µM, respectively.
On to `Cc1ccc(/C=C(\C[PH](=O)O)C(=O)O)cc1`, for which, in test [2], the Ki is 23.4 µM.
For the compound `C=C(C(=O)OC)C(OC(C)=O)c1ccccc1` (configuration not stated), the IC50 in [7] is 870 µM; in [9], above 1000 µM. For the same compound, the Ratio in the test on Sporosarcina pasteurii [8] is below 1 M⁻¹ s⁻¹.
On to `COC(=O)/C(=C/c1ccc(OC)cc1)CP(=O)(O)O`, for which the figures for the Ki in test [1] and in [2] were 239 µM and 229 µM, respectively.
With `C=C(C(=O)OC)C(OC(C)=O)c1ccc(C)cc1` (configuration not stated), the IC50 in test [7] is 331 µM; in [9], above 1000 µM. In addition, the Ratio with Sporosarcina pasteurii [8] stood at 5.62 M⁻¹ s⁻¹.
For the compound `NCP(=O)(O)C/C(=C\c1ccccc1)C(=O)O`, the IC50 turned out to be 1510 µM in test [5] and 1340 µM in test [6]. For the same compound, the Ki in test [1] was determined as 1420 µM; in test [2], 1320 µM.
The corresponding values for `COC(=O)/C(=C/c1ccccc1)C[PH](=O)O` are 201 µM, 104 µM, 177 µM and 97.5 µM.
For the compound `O=C(O)/C(=C/c1ccccc1)CCP(=O)(O)O`, the results for the IC50 in test [5] and in test [6] were 83.4 µM and 48.4 µM, respectively. The Ki in [1] came to 55.6 µM; in [2] it was 66.7 µM.
Turning to `O=C(O)/C(=C/c1ccc(Cl)cc1)CP(=O)(O)O`, the Ki in test [1] was found to be 19.6 µM; in test [2] it was 16.2 µM.
Take `Cc1ccc(CC(CP(=O)(O)O)C(=O)O)cc1` (configuration not stated): the Ki in [1] amounted to 88 µM; in test [2], 90.2 µM.
Take `COC(=O)/C(=C/c1ccc(F)cc1)CP(=O)(O)O`: the Ki turned out to be 73.2 µM in test [1] and 62.9 µM in test [2].
For `C=C(C(=O)OC)C(OC(C)=O)c1ccc([N+](=O)[O-])cc1` (configuration not stated), the values for the IC50 in test [7] and in test [9] were 224 µM and 679 µM, respectively. Moreover, the Ratio with Sporosarcina pasteurii [8] amounted to 2.34 M⁻¹ s⁻¹.
The corresponding values for `C=C(C(=O)OC)C(OC(C)=O)c1ccc(OC)cc1` (configuration not stated) are 1240 µM, above 2000 µM and below 1 M⁻¹ s⁻¹.
`COC(=O)/C(=C/c1ccc(C)cc1)CP(=O)(O)O`: the Ki in [1] worked out at 21.4 µM; in test [2] it was 20.7 µM.
`O=C(O)/C(=C/c1ccc([N+](=O)[O-])cc1)CCP(=O)(O)O`: the Ki worked out at 433 µM in test [10] and 59.9 µM in test [11].
As to `Cc1ccc(/C=C(\CP(=O)(O)O)C(=O)O)cc1`, the figures for the Ki in [1], in test [2] and in test [12] were 0.674 µM, 0.594 µM and 0.485 µM, respectively.
Regarding `CP(=O)(O)C/C(=C\c1ccccc1)C(=O)O`, the inhibition result with Sporosarcina pasteurii [3] was “inactive”.
As for `COC(=O)/C(=C/c1ccc(Cl)cc1)C[PH](=O)O`, the inhibition constant Ki in test [1] was found to be 24 µM; in test [2] it was 16.7 µM. In addition, in the test with Sporosarcina pasteurii [4], the Ratio Ki is 5 to 7.

What is called Ki is a dissociation constant, usually derived from enzyme kinetics or from competition with a known ligand. As a reminder, the IC50 is the concentration that inhibits the measured activity by half.
